This is an account of results in patent US7122335B1, “Compounds and methods to enhance rAAV transduction” (priority 1999, dated 2006).

“Also recorded” adds a separate entry of the source. Where a name gives a salt, the structure may show the parent alone. Read-outs that look alike come from different tables or passages of the source. Peptide text beside a SMILES is read from it.

What all share (assay type): cell-based
The subject of test [1] is primary human fibroblasts. As to the method:
FIG. 6. Primary confluent fibroblasts were infected with AV.GFP3ori virus at an MOI=1000 particles/cell following treatment with brefeldin A (10 μg/ml), vinblastine (22 μM), cytochalasin B (1 μM), NH4Cl (2 mM), chloroquine (20 μm), LLnL (400 μM), and Z-LLL (4 μM), final concentration indicated in brackets. Cells were harvested at 96 hours post-infection and the transduction efficiency was compared to untreated rAAV infected cells by FACS analysis for GFP expression. To control for non-specific effects caused by toxicity of the compounds, the percentage of live cells was also assessed by the absence of propidium iodide incorporation.
80% confluent human primary fibroblasts were infected with AV.GFP3ori at an moi of 1000 DNA particles/cell. FIG. 16A depicts GFP transgene expression in the absence (left photographs) and presence of 40 μM LLnL (right photographs) at 96 hours post-infection. […] Top and bottom panels represent bright field and FITC-channel fluorescent photomicrographs, respectively. The mean (+/−SEM, N=3) percentage of cells transduced with rAAV, as measured by FACS sorting of GFP expressing cells, is presented in the bar graph of FIG. 16B. […] In this study, rAAV from infected cells was first immunoprecipitated with anti-VP1,2,3 (AAV-2 capsid) monoclonal antibody followed by Western blot detection of ubiquitin side chains using an anti-ubiquitin monoclonal antibody. […] Epithelia were infected with AV.GFP3ori (10,000 particles/cell) from the basolateral surface following treatment with ubiquitin ligase inhibitor dipeptides (0.2 mM H-Leu-Ala-OH and 0.2 mM H-His-Ala-OH).
Initial studies were performed in confluent primary human fibroblasts since dose titrations and toxicity could be quickly assessed. Selected compounds were used to treat fibroblast monolayers prior to rAAV infection. rAAV transduction was assessed at 96 hours post-infection by FACS analysis, and the percentage of dead cells was simultaneously assessed by incorporation of propidium iodide.
These tripeptides are structurally related to chloroquine but have different lipid solubility and specificity for cysteine proteases (Seglen, 1983). These molecules decrease endosomal degradation of molecules by a mechanism different than altering pH.
Transduction of polarized airway epithelial cells and primary human fibroblasts. rAAV infection of fully differentiated bronchial cells was performed as described in Duan et al. (1998). For infections from the apical surface of the airway cells, 5 μl rAAV was mixed with 50 μl of culture media and applied directly onto the apical compartment of Millicell inserts (MOI=10,000 particles/cell). During apical infection, the basolateral side of the Millicell was continuously bathed in culture media. Gene transfer to the basal side was performed by inverting Millicell inserts and applying viral vector to the bottom of the supporting filter membrane in a 50 μl volume for 2 hours. Subsequently, Millicell inserts were returned to the upright position, in the continued presence of the original viral inoculum plus an additional 450 μl of media. For both apical and basolateral infections, rAAV containing media was removed after 24 hours and replaced with either fresh culture media (for the basal side) or exposed to air (for the apical side). To test the effect of different agents on the efficiency of AAV transduction in polarized airway cells, 1 μl of each solution was mixed with AAV prior to infection of airway epithelia. Agents were usually presented during the 24 hours AAV infection period unless indicated otherwise.

The test system of test [2] is human bronchial epithelia. As to the kind of experiment: Southern blot of Hirt DNA for rAAV genomes in polarized airway epithelia. As to conditions: hypotonic EGTA treatment alone, apical infection. As to the method: FIGS. 15A–C. Examination of rAAV endocytosis by Southern blot analysis of viral DNA. Hirt DNA from AV.GFP3ori infected or mock infected (Lanes 1 and 7 in both FIGS. 15A and 15B) human bronchial epithelia were extracted for a direct examination of viral genomes by Southern blotting against a P^32-labeled EGFP probe. FIG. 15A depicts viral binding studies in the presence and absence of LLnL with or without EGTA treatment prior to apical or basolateral infection for 1 hour at 4° C. Cell surface-bound virus was completely removed by trypsin (FIG. 15A, lanes 2 through 6). To determine the amount of the surface-bound rAVV, cells were infected with AV.GFP3ori for 1 hour at 4° C. and were not treated with trypsin prior to Hirt DNA extraction. Panel A: lane 8: apical AAV infection; lane 9: apical AAV infection in the presence of LLnL; lane 10: cells were pre-treated with hypotonic EGTA prior to apical infection in the presence of LLnL; lane 11: basolateral infection; lane 12: basolateral infection in the presence of LLnL. FIG. 15B depicts the results of studies evaluating rAAV internalization from either the apical or the basolateral surface in the presence or absence of LLnL, and the internalization from the apical surface after combined treatment with hypotonic EGTA and LLnL. To detect the net amount of the internalized viral genome, all samples in FIG. 15B were treated with trypsin just before Hirt DNA was harvested. The extent of the internalized virus at 4 hours (FIG. 15B, lanes 2 through 6) and 24 hours (FIG. 15B, lanes 8 through 12) incubation at 37° C. after infection is represented by the intensity of the 1.6 kb single stranded viral genome band. FIG. 15B; lane 2; apical AAV infection for 4 hours; lane 3: apical AAV infection in the presence of LLnL for 4 hours; lane 4: cells were pre-treated with hypotonic EGTA prior to apical infection in the presence of LLnL for 4 hours; lane 5: basal infection for 4 hours; lane 6: basolateral infection in the presence of LLnL for 4 hours; lane 8: apical infection for 24 hours; lane 9: apical infection in the presence of LLnL for 24 hours; lane 10: cells were pre-treated with hypotonic EGTA prior to apical infection in the presence of LLnL for 24 hours; lane 11: basolateral infection for 24 hours; lane 12: basolateral infection in the presence of LLnL for 24 hours. […]
Molecular analysis of rAAV viral genomes owing infection of polarized airway epithelial cultures. […] Following binding, the extent of viral internalization was assessed by continuing incubations in the presence of virus at 37° C. for 4–24 hours. […] The 1.6 kb single stranded viral DNA, the 2.7 kb double stranded circular intermediate, and the 4.7 kb double stranded replication from viral genome were detected with a transgene EGFP specific probe at 5×10^6 cpm/ml. […]

The subject of test [3] is polarized human bronchial epithelial cells. The following applies: for rAAV transduction from the basolateral surface with ubiquitin ligase (E3) inhibitors: both dipeptides combined, 2 mM pretreatment 60 minutes, 0.2 mM during 24 hours infection; for rAAV transduction from the apical (mucosal) surface, in words: apical infection, agent at time of infection (LLnL 40 μM). As to the method:
FIGS. 7A and 7B. Proteasome inhibitors differentially augment rAAV transduction from the apical or basolateral surfaces of airway epithelia. The efficiency and time course of rAAV transduction were evaluated in polarized airway epithelial cultures following infection with rAV.GFPori3 (MOI=10,000 particles/cell) in the presence or absence of 40 μM LLnL. Transgene expression was monitored by indirect fluorescence microscopy at the indicted time points by quantifying the mean number of GFP positive cells per 10× field (mean +/−SEM of 3 independent samples for each time point). The effect of LLnL treatment was compared between matched sets of tissue samples at each time point following infection from the apical (FIG. 7A) or basolateral (FIG. 7B) surfaces. The photomicrographs on the right side of each figure illustrate representative 20× fields for the 3 and 22 day post-infection time points.
FIG. 9. Effects of different agents on AAV transduction from the basal surface of polarized bronchial epithelia. Fully differentiated human bronchial airway epithelia were treated with the indicated agents at the time of AAV infection (MOI=10,000 particles/cell) from the basolateral surface. […] Since most of the tested agents (except for hydroxyurea) were dissolved in DMSO, a vehicle control of 1% (vol/vol) DMSO was also performed to exclude the possibility of a non-specific effect. GFP expression was monitored at 48 hours post-infection by counting the number of GFP positive cells per 10 random 10× fields in the culture dishes. The data represent the mean +/−SEM of three independent infections for each tested chemical.
FIG. 10. The proteasome inhibitor LLnL preferentially induces AAV transduction in ciliated cells. The cell types transduced by AAV were examined by alkaline phosphatase staining 3 days following basolateral infection of polarized epithelial cultures with AV.Alkphos infection (MOI=10,000 particles/cell) in the presence of or absence of 40 μM LLnL. […] 8 μm paraffin sections were used to histologically quantify the types of cells transduced. Three classifications were used, ciliated cells (with alkphos expression localized to the apical membrane and cilia), basal cells residing in the lower half of the epithelium with no contact with the lumen, and non-ciliated, columnar cells. Panel C (without LLnL) and D (with LLnL) show representative neutral red counter-stained cross-sections for each condition. The numbers of alkphos stained cells/2000 epithelial cells for the various cell types transduced by AAV are presented in panel E (mean +/−SEM from three independent Millicell insert samples).
FIGS. 11A and 11B. Optimization of LLnL-enhanced transduction in polarized bronchial epithelia. Differentiated transwell cultures were infected with AV.GFP3ori (10,000 particles/cell) from either the basolateral (FIG. 11A) or the apical (FIG. 11B) surface with the indicated treatments involving LLnL and/or EGTA. All infections were carried out for 24 hours and GFP transgene expression was monitored by indirect fluorescent microscopy at the indicated times. Data represent the mean (+/−SEM, N=6) for each experimental condition. Experiments were performed in triplicate on transwells derived from samples obtained from two different patients. […]

The mark [4] stands for this setting: confluent fibroblasts, AV.GFP3ori MOI 1000, 96 hours post-infection, brefeldin A 10 μg/ml, vinblastine 22 μM, cytochalasin B 1 μM, NH4Cl 2 mM, chloroquine 20 μm, LLnL 400 μM, Z-LLL 4 μM.

With `C[C@H]1CCC/C=C/[C@@H]2C[C@H](O)C[C@H]2[C@H](O)/C=C/C(=O)O1` [BFA, brefeldin A], the “rAAV transduction (GFP expression) compared to untreated rAAV infected cells” value in test [1] (setting [4]) was “significant enhancement of rAAV transduction”.
On to `O=C(O)CN(CCOCCOCCN(CC(=O)O)CC(=O)O)CC(=O)O` [EGTA], for which the “increase in persistence of AAV DNA” value in test [2] was “less than 4 fold”.
In the case of `C[C@H](NC(=O)[C@@H](N)Cc1cnc[nH]1)C(=O)O` [H-His-Ala-OH] (H-His-Ala-OH), the “rAAV transduction from the basolateral surface with ubiquitin ligase (E3) inhibitors” value in test [3] was “enhanced rAAV transduction”.
Turning to `CC(C)C[C@H](N)C(=O)N[C@@H](C)C(=O)O` [H-Leu-Ala-OH] (H-Leu-Ala-OH), the “rAAV transduction from the basolateral surface with ubiquitin ligase (E3) inhibitors” value in test [3] was “enhanced rAAV transduction”.
As to `Cl.N` [NH4Cl], the “rAAV transduction (GFP expression) compared to untreated rAAV infected cells” value in test [1] is on record as “significantly inhibited rAAV transduction”.
Take `CC[C@@]1(O)C(=O)OCc2c1cc1n(c2=O)Cc2cc3ccccc3nc2-1` [camptothecin]: the “rAAV transduction from the apical (mucosal) surface, in words” value (“rAAV transduction from the apical” below) in test [3] is “none of these agents facilitated rAAV transduction from the apical surface”.
Regarding `CCN(CC)CCCC(C)Nc1ccnc2cc(Cl)ccc12` (stereo not drawn) [chloroquine], the “rAAV transduction (GFP expression) compared to untreated rAAV infected cells” value in test [1] (setting [4]) is “significantly inhibited rAAV transduction”.
As to `C=C1[C@@H](C)[C@H]2[C@H](Cc3ccccc3)NC(=O)[C@]23OC(=O)/C=C/[C@H](O)CCC[C@@H](C)C/C=C/[C@H]3[C@@H]1O` [cytochalasin B], the “rAAV transduction (GFP expression) compared to untreated rAAV infected cells” value in test [1] (setting [4]) is on record as “significant decrease in rAAV transduction”.
As for `COc1cc([C@@H]2c3cc4c(cc3[C@@H](O[C@@H]3O[C@@H]5CO[C@@H](C)O[C@H]5[C@H](O)[C@H]3O)[C@H]3COC(=O)[C@H]23)OCO4)cc(OC)c1O` [etoposide], in test [3], the “rAAV transduction from the apical” value is on record as “none of these agents facilitated rAAV transduction from the apical surface”.
Regarding `O=c1c(-c2ccc(O)cc2)coc2cc(O)cc(O)c12` [genistein], the “rAAV transduction from the apical” value in test [3] was “none of these agents facilitated rAAV transduction from the apical surface”.
As for `NC(=O)NO` [hydroxyurea], the “rAAV transduction from the apical” value in test [3] is on record as “none of these agents facilitated rAAV transduction from the apical surface”.
For `CC[C@]1(O)C[C@@H]2CN(CCc3c([nH]c4ccccc34)[C@@](C(=O)OC)(c3cc4c(cc3OC)N(C)[C@H]3[C@@](O)(C(=O)OC)[C@H](OC(C)=O)[C@]5(CC)C=CCN6CC[C@]43[C@@H]65)C2)C1` [vinblastine, vinblastine sulfate], the “rAAV transduction (GFP expression) compared to untreated rAAV infected cells” value in test [1] (setting [4]) is reported as “little effect on rAAV transduction; also recorded: did not inhibit rAAV-2 transduction”.
